According to patent US12139492B2 (Endotarget Inc., priority 2021, dated 2024):
Like-named read-outs stand apart in the source and are kept apart here.

Experiments:
Mino cells = assay: Antiproliferative effect, MTS cell viability assay, Mino cells; format: cell-based; settings: Homo sapiens, Mino mantle cell lymphoma cells, read-out: IC50 (anti-proliferation) Mino cells
Method in brief: (§1)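 Steps: seed B-cell lymphoma line; add compound at 0, 0.001, 0.01, 0.1, 1 or 10 μM; incubate 72 h; add MTS and read reduced tetrazolium (formazan) absorbance at 490 nm.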

JeKo-1 cells = assay: Antiproliferative effect, MTS cell viability assay, JeKo-1 cells; format: cell-based; settings: Homo sapiens; JeKo-1 mantle cell lymphoma cells; read-out: IC50 (anti-proliferation) JeKO-1 cells
Method in brief: as §1

BTK = BTK (Homo sapiens, UniProt Q06187); assay: Degradation of BTK protein in Namalwa cells (Western blot; DC50, Dmax); settings: for DC50: cell line not given; for degradation of BTK protein: Namalwa B lymphocyte cells, various concentrations, 24 hours, Western blot
[1] = read-out: DC50 (BTK degradation), concentration giving 50% reduction of BTK expression level
[2] = read-out: Dmax (BTK degradation)

BTK, sequence (Q06187 whole entry): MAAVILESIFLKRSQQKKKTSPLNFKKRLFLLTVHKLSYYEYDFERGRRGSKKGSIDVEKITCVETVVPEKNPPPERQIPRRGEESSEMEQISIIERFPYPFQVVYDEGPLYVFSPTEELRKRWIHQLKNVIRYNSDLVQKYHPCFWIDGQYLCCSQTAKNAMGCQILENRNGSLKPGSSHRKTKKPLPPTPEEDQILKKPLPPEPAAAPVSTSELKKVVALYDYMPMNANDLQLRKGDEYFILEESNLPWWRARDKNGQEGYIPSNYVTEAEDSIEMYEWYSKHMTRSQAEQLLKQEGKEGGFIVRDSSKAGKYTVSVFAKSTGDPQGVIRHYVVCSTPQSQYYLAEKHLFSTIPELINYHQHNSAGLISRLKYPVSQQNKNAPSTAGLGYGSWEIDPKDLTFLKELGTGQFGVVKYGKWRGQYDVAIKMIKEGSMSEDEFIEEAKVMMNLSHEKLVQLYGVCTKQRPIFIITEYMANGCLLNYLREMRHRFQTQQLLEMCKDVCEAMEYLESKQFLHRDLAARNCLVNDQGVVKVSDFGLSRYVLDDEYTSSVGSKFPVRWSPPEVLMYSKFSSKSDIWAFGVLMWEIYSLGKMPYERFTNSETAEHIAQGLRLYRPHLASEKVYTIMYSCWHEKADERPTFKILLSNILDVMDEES

Compound: Nc1ncnc2c1c(-c1ccc(Oc3ccccc3)cc1)nn2C1CCN(C2CCN(CCCN3CCN(c4ccc(N5CCC(=O)NC5=O)cc4)CC3)CC2)CC1 [Compound 572, 1-(4-(4-(3-(4-(4-amino-3-(4-phenoxyphenyl)-1H-pyrazolo[3,4-d]pyrimidin-1-yl)-[1,4′-bipiperidin]-1′-yl)propyl)piperazin-1-yl)phenyl)dihydropyrimidine-2,4(1H,3H)-dione]
- IC50 (Mino cells; MINO): < 1 µM
- IC50 (JeKo-1 cells): < 1 µM
- DC50 (BTK; [1]): 0.01 to 0.05 µM
- Dmax (BTK; [2]): > 90%

Compound: Nc1ncnc2c1c(-c1ccc(Oc3ccccc3)cc1)nn2C1CCN(C2CCN(CCCC#Cc3ccc(N4CCC(=O)NC4=O)cc3)C2)CC1 (centres unmarked) [Compound 537, 1-(4-(5-(3-(4-(4-amino-3-(4-phenoxyphenyl)-1H-pyrazolo[3,4-d]pyrimidin-1-yl)piperidin-1-yl)pyrrolidin-1-yl)pent-1-yn-1-yl)phenyl)dihydropyrimidine-2,4(1H,3H)-dione]
- IC50 (Mino cells; MINO): > 10 µM
- IC50 (JeKo-1 cells): > 10 µM
- DC50 (BTK; [1]): > 0.05 µM
- Dmax (BTK; [2]): > 50%

Compound: Nc1ncnc2c1c(-c1ccc(Oc3ccccc3)cc1)nn2[C@@H]1CCCN(C(=O)N2CC(N3CCN(c4ccc5c(c4)C(=O)N([C@H]4CCC(=O)NC4=O)C5=O)CC3)C2)C1 [Compound 489, 5-(4-(1-((R)-3-(4-amino-3-(4-phenoxyphenyl)-1H-pyrazolo[3,4-d]pyrimidin-1-yl)piperidine-1-carbonyl)azetidin-3-yl)piperazin-1-yl)-2-((S)-2,6-dioxopiperidin-3-yl)isoindoline-1,3-dione]
- IC50 (Mino cells; MINO): < 1 µM
- IC50 (JeKo-1 cells): < 1 µM
- DC50 (BTK; [1]): < 0.01 µM
- Dmax (BTK; [2]): > 90%

Compound: NC(=O)c1c(-c2ccc(Oc3ccccc3)cc2)nn2c1NCC[C@H]2C1CCN(CC2CCN(C(=O)N3CCC(CN4CCN(c5ccc6c(c5)C(=O)N(C5CCC(=O)NC5=O)C6=O)CC4)CC3)CC2)CC1 (stereo partly drawn) [Compound 409, (7S)-7-(1-((1-(4-((4-(2-(2,6-dioxopiperidin-3-yl)-1,3-dioxoisoindolin-5-yl)piperazin-1-yl)methyl)piperidine-1-carbonyl)piperidin-4-yl)methyl)piperidin-4-yl)-2-(4-phenoxyphenyl)-4,5,6,7-tetrahydropyrazolo[1,5-a]pyrimidine-3-carboxamide]
- IC50 (Mino cells; MINO): < 1 µM
- IC50 (JeKo-1 cells): 1 to 10 µM
- DC50 (BTK; [1]): < 0.01 µM
- Dmax (BTK; [2]): > 90%

Compound: Nc1ncnc2c1c(-c1ccc(Oc3ccccc3)cc1)nn2C1CCN([C@@H]2CCN(CC3CCN(c4ccc5c(c4)C(=O)N(C4CCC(=O)NC4=O)C5=O)CC3)C2)CC1 (stereo partly drawn) [Compound 449b, 5-(4-(((R)-3-(4-(4-amino-3-(4-phenoxyphenyl)-1H-pyrazolo[3,4-d]pyrimidin-1-yl)piperidin-1-yl)pyrrolidin-1-yl)methyl)piperidin-1-yl)-2-(2,6-dioxopiperidin-3-yl)isoindoline-1,3-dione]
- IC50 (Mino cells; MINO): < 1 µM
- IC50 (JeKo-1 cells): < 1 µM
- DC50 (BTK; [1]): < 0.01 µM
- Dmax (BTK; [2]): > 90%

Compound: NC(=O)c1c(-c2ccc(Oc3ccccc3)cc2)nn2c1NCCC2C1CCN(C(=O)N2CCN(CC3CCN(c4ccc5c(c4)C(=O)N(C4CCC(=O)NC4=O)C5=O)CC3)CC2)CC1 (centres unmarked) [Compound 273, 7-(1-(4-((1-(2-(2,6-dioxopiperidin-3-yl)-1,3-dioxoisoindolin-5-yl)piperidin-4-yl)methyl)piperazine-1-carbonyl)piperidin-4-yl)-2-(4-phenoxyphenyl)-4,5,6,7-tetrahydropyrazolo[1,5-a]pyrimidine-3-carboxamide]
- IC50 (Mino cells; MINO): < 1 µM
- IC50 (JeKo-1 cells): 1 to 10 µM
- Dmax (BTK): > 90%
- DC50 (BTK; BTK degradation): 0.01 to 0.05 µM

Compound: Nc1ncnc2c1c(-c1ccc(Oc3ccccc3)cc1)nn2C1CCN(C2CCN(C(=O)N3CCN(c4ccc5c(c4)C(=O)N(C4CCC(=O)NC4=O)C5=O)CC3)CC2)CC1 (centres unmarked) [Compound 229, 5-(4-(4-(4-amino-3-(4-phenoxyphenyl)-1H-pyrazolo[3,4-d]pyrimidin-1-yl)-[1,4′-bipiperidine]-1′-carbonyl)piperazin-1-yl)-2-(2,6-dioxopiperidin-3-yl)isoindoline-1,3-dione]
- IC50 (Mino cells; MINO): > 10 µM
- IC50 (JeKo-1 cells): 1 to 10 µM
- Dmax (BTK): > 50%
- DC50 (BTK; BTK degradation): > 0.05 µM

Compound: Nc1ncnc2c1c(-c1ccc(Oc3ccccc3)cc1)nn2C1CCN(CC2CN(CC3CCN(c4ccc5c(c4)CN(C4CCC(=O)NC4=O)C5=O)CC3)C2)CC1 (centres unmarked) [Compound 440]
- IC50 (Mino cells; MINO): < 1 µM
- IC50 (JeKo-1 cells): 1 to 10 µM
- DC50 (BTK; [1]): < 0.01 µM
- Dmax (BTK; [2]): > 90%

Compound: NC(=O)c1c(-c2ccc(Oc3ccccc3)cc2)nn2c1NCCC2C1CCN(CC2CCN(C(=O)N3CCC(N4CCN(c5ccc6c(c5)CN(C5CCC(=O)NC5=O)C6=O)CC4)CC3)CC2)CC1 (centres unmarked) [Compound 364, 7-(1-((1-(4-(4-(2-(2,6-dioxopiperidin-3-yl)-1-oxoisoindolin-5-yl)piperazin-1-yl)piperidine-1-carbonyl)piperidin-4-yl)methyl)piperidin-4-yl)-2-(4-phenoxyphenyl)-4,5,6,7-tetrahydropyrazolo[1,5-a]pyrimidine-3-carboxamide]
- IC50 (Mino cells; MINO): < 1 µM
- IC50 (JeKo-1 cells): < 1 µM
- Dmax (BTK): > 90%
- DC50 (BTK; BTK degradation): < 0.01 µM

Compound: NC(=O)c1c(-c2ccc(Oc3ccccc3)cc2)nn2c1NCCC2C1CCN(C2CCN(C(=O)N3CCC(CN4CCC(c5ccc6c(c5)C(=O)N(C5CCC(=O)NC5=O)C6=O)CC4)CC3)CC2)CC1 (centres unmarked) [Compound 355, 7-(1′-(4-((4-(2-(2,6-dioxopiperidin-3-yl)-1,3-dioxoisoindolin-5-yl)piperidin-1-yl)methyl)piperidine-1-carbonyl)-[1,4′-bipiperidin]-4-yl)-2-(4-phenoxyphenyl)-4,5,6,7-tetrahydropyrazolo[1,5-a]pyrimidine-3-carboxamide]
- IC50 (Mino cells; MINO): 1 to 10 µM
- IC50 (JeKo-1 cells): 1 to 10 µM
- Dmax (BTK): > 90%
- DC50 (BTK; BTK degradation): < 0.01 µM

Compound: Nc1ncnc2c1c(-c1ccc(Oc3ccccc3)cc1)nn2C1CCN(CC2CCN(CC3CCN(CC4CN(c5ccc6c(c5)C(=O)N(C5CCC(=O)NC5=O)C6=O)C4)CC3)CC2)CC1 (centres unmarked) [Compound 431, 5-(3-((4-((4-((4-(4-amino-3-(4-phenoxyphenyl)-1H-pyrazolo(3,4-d)pyrimidin-1-yl)piperidin-1-yl)methyl)piperidin-1-yl)methyl)piperidin-1-yl)methyl)azetidin-1-yl)-2-(2,6-dioxopiperidin-3-yl)isoindoline-1,3-dione]
- IC50 (Mino cells; MINO): < 1 µM
- IC50 (JeKo-1 cells): < 1 µM
- degradation of BTK protein (BTK): dose-dependent degradation
- DC50 (BTK; [1]): > 0.05 µM
- Dmax (BTK; [2]): > 90%

Compound: Nc1ncnc2c1c(-c1ccc(Oc3ccccc3)cc1)nn2C1CCN(C2CCN(CC3CCN(c4ccc5c(c4)CN(C4CCC(=O)NC4=O)C5=O)CC3)CC2)CC1 (centres unmarked) [Compound 214]
- IC50 (Mino cells): 1 to 10 µM
- IC50 (JeKo-1 cells): 1 to 10 µM
- Dmax (BTK): < 50%
- DC50 (BTK; BTK degradation): > 0.05 µM
- degradation of BTK protein (BTK): dose-dependent degradation

Compound: Nc1ncnc2c1c(-c1ccc(Oc3ccccc3)cc1)nn2C1CCN(C2CCN(CCN3CCN(c4ccc5c(c4)CN(C4CCC(=O)NC4=O)C5=O)CC3)CC2)CC1 (centres unmarked) [Compound 218, 3-(5-(4-(2-(4-(4-amino-3-(4-phenoxyphenyl)-1H-pyrazolo[3,4-d]pyrimidin-1-yl)-[1,4′-bipiperidin]-1′-yl)ethyl)piperazin-1-yl)-1-oxoisoindolin-2-yl)piperidine-2,6-dione]
- IC50 (Mino cells; MINO): 1 to 10 µM
- IC50 (JeKo-1 cells): < 1 µM
- Dmax (BTK): > 75%
- DC50 (BTK; BTK degradation): 0.01 to 0.05 µM

Compound: NC(=O)c1c(-c2ccc(Oc3ccccc3)cc2)nn2c1NCCC2C1CCN(CC2CCN(CCC3CCN(c4ccc5c(c4)C(=O)N(C4CCC(=O)NC4=O)C5=O)CC3)CC2)CC1 (centres unmarked) [Compound 317, 7-(1-((1-(2-(1-(2-(2,6-dioxopiperidin-3-yl)-1,3-dioxoisoindolin-5-yl)piperidin-4-yl)ethyl)piperidin-4-yl)methyl)piperidin-4-yl)-2-(4-phenoxyphenyl)-4,5,6,7-tetrahydropyrazolo[1,5-a]pyrimidine-3-carboxamide]
- IC50 (Mino cells; MINO): 1 to 10 µM
- IC50 (JeKo-1 cells): > 10 µM
- Dmax (BTK): > 75%
- DC50 (BTK; BTK degradation): > 0.05 µM

Compound: Nc1ncnc2c1c(-c1ccc(Oc3ccccc3)cc1)nn2C1CCN(C2CCN(CCCN3CCN(c4ccc(N5CCC(=O)NC5=O)cc4)CC3)C2)CC1 (centres unmarked) [Compound 577, 1-(4-(4-(3-(3-(4-(4-amino-3-(4-phenoxyphenyl)-1H-pyrazolo[3,4-d]pyrimidin-1-yl)piperidin-1-yl)pyrrolidin-1-yl)propyl)piperazin-1-yl)phenyl)dihydropyrimidine-2,4(1H,3H)-dione]
- IC50 (Mino cells; MINO): 1 to 10 µM
- IC50 (JeKo-1 cells): 1 to 10 µM
- DC50 (BTK; [1]): < 0.01 µM
- Dmax (BTK; [2]): > 90%

Compound: Nc1ncnc2c1c(-c1ccc(Oc3ccccc3)cc1)nn2C1CCN(C2CCN(C(=O)N3CCN(CCN4CCC(c5ccc6c(c5)CN(C5CCC(=O)NC5=O)C6=O)CC4)CC3)CC2)CC1 (centres unmarked) [Compound 250]
- IC50 (Mino cells; MINO): 1 to 10 µM
- IC50 (JeKo-1 cells): 1 to 10 µM
- Dmax (BTK): > 90%
- DC50 (BTK; BTK degradation): 0.01 to 0.05 µM

Compound: NC(=O)c1c(-c2ccc(Oc3ccccc3)cc2)nn2c1NCCC2C1CCN(CC2CCN(C(=O)N3CCN(c4ccc5c(c4)C(=O)N(C4CCC(=O)NC4=O)C5=O)CC3)CC2)CC1 (centres unmarked) [Compound 357, 7-(1-((1-(4-(2-(2,6-dioxopiperidin-3-yl)-1,3-dioxoisoindolin-5-yl)piperazine-1-carbonyl)piperidin-4-yl)methyl)piperidin-4-yl)-2-(4-phenoxyphenyl)-4,5,6,7-tetrahydropyrazolo[1,5-a]pyrimidine-3-carboxamide]
- IC50 (Mino cells; MINO): > 10 µM
- IC50 (JeKo-1 cells): > 10 µM
- Dmax (BTK): > 50%
- DC50 (BTK; BTK degradation): > 0.05 µM

Compound: NC(=O)c1c(-c2ccc(Oc3ccccc3)cc2)nn2c1NCCC2C1CCN(C(=O)N2CCC(CCN3CCC(c4ccc5c(c4)CN(C4CCC(=O)NC4=O)C5=O)CC3)CC2)CC1 (centres unmarked) [Compound 286, 7-(1-(4-(2-(4-(2-(2,6-dioxopiperidin-3-yl)-1-oxoisoindolin-5-yl)piperidin-1-yl)ethyl)piperidine-1-carbonyl)piperidin-4-yl)-2-(4-phenoxyphenyl)-4,5,6,7-tetrahydropyrazolo[1,5-a]pyrimidine-3-carboxamide]
- IC50 (Mino cells; MINO): 1 to 10 µM
- IC50 (JeKo-1 cells): 1 to 10 µM
- Dmax (BTK): > 75%
- DC50 (BTK; BTK degradation): > 0.05 µM
